Data: patent US20250249001A1, “METHODS OF TREATING SUBSTANCE USE DISORDER WITH 4-(3-CYANOPHENYL)-6-PYRIDINYLPYRIMIDINE MGLU5 NEGATIVE ALLOSTERIC MODULATORS” (Tempero Bio, Inc., priority 2022, published 2025)

What was measured:
[1] = test system: voluntary home-cage alcohol drinking by Wistar rats; assay: Home-cage two-bottle choice alcohol drinking, acute treatment; assay type: in vivo; details: each drug 3 mg/kg i.p. acute
Method: Animals: Male Wistar rats (Charles River Laboratories, INC) were used in these studies. Rat housing and testing was conducted at the University of North Carolina at Chapel Hill (UNC-CH) School of Medicine in a state-of-the-art rodent vivarium approved by the Association for Assessment and Accreditation of Laboratory Animal Care International (AAALAC). Rat health was monitored daily by study investigators and veterinarians in the Division of Comparative Medicine UNC. All experimental procedures were carried out in accordance with the NIH Guide to Care and Use of Laboratory Animals (Committee for the Update of the Guide for the Care and Use of Laboratory Animals, 2011) and institutional guidelines.
Rats were housed individually in standard Plexiglas cages with standard rodent food and water available ad libitum. Upon arrival from the vendor, rats were given 7 days to acclimate to the vivarium during which they were weighed and handled by an investigator each day to monitor general health and habituate them to human contact. Rats were then weighed each day within 1-h of experimental procedures to calculate drug dosages relative to body weight. […] The colony was maintained at […] on a 12-hour light/dark cycle, with the lights on from 10 AM-10 PM. All behavioral experiments were conducted during the light portion of the light cycle.
Home-cage alcohol drinking method. Oral alcohol and water intake were examined using a two-bottle choice protocol, which is standard in the field and commonly used in our laboratory. Male Wistar rats (n=12) were first adapted to drinking from a 50 ml conical tube fitted with a standard stainless-steel ball bearing sipper tube that limits spillage. Then, two bottles were place on the cage daily. One bottle contained an alcohol solution and the other contained water. Bottles containing fresh solutions were weighed daily before and after a 24 hr access period. After drug treatment, bottles were weighed after 1 hr and 24 hrs of access. Each week, rats had 4-5 days of sweetened alcohol and water available and the remaining days only water.
Briefly, rats were first exposed to alcohol (10% v/v)+sucrose (5% w/v). versus water in the two bottles. Then, over a period of 6-weeks, the concentrations of alcohol and sucrose were gradually adjusted to alcohol (8% v/v)+sucrose (2% w/v) to achieve intake of pharmacologically relevant doses of alcohol. Rats were maintained at this concentration for the duration of the experiment for both acute (3.1.a) and chronic (3.1.b) home-cage drinking studies. Use of sweetened alcohol solutions in preclinical research provides face validity to the binge-intoxication stage of alcohol addiction in humans where sweeteners are commonly added to alcohol.
Compound 1 treatment. After establishing baseline intake of sweetened alcohol and water, rats were habituated to i.p. injections. All rats (N=12) were administered 3 habituation injections of vehicle (10% w/v kolliphor in BCD (10%)) prior to the Compound 1 dose response curve and alcohol intake was measured. Then, the Compound 1 dose response curve was conducted with dose order randomized according to a modified Latin-Square design. Rats were given a minimum of 1-2 days between injections to ensure normal drinking was re-established in absence of drug administration. Each dose of Compound 1 (0-10 mg/kg) was administered via i.p. injection and rats were placed back in the home-cage for 1 hr prior to the return of sweetened alcohol and water. Alcohol intake was measured after 1-h and 24-hrs of access in grams by weighing the drinking bottles. Data were excluded from 1 rat that emptied both bottles fully each day without drinking the solutions; thus, results are presented for a final group of N=11 rats.
Efficacy comparisons to MPEP and Naltrexone. […]

[2] = test system: cue-induced reinstatement of alcohol-seeking behavior in Wistar rats; details: earlier work of the authors; cited from earlier work
[3] = test system: cocaine reinstatement in rats; assay: Yohimbine-induced reinstatement of cocaine self-administration (Stage II); assay type: in vivo, Sprague-Dawley rats
Method: After completion of Stage I, the rats were re-trained with cocaine for one week to ensure stable baseline. And then the rats underwent a 6-day extinction training procedure in which only saline infusion occurred when active lever was pressed. Meanwhile, the rats were divided into 3 roughly even groups for pharmacological stressor-induced reinstatement—All rats received one injection of alpha-2 adrenergic antagonist yohimbine (2 mg/kg) and then placed into the training box immediately). Thirty min before yohimbine treatment, one group of rats received saline, another group received MTEP 3 mg/kg injection, and the 3rd group received Compound 1 at 3 mg/kg.
Yohimbine-induced reinstatement was re-tested two more times in the same rats 3 days and 6 days after the first test, under continuous extinction procedure (There were 2 more days of extinction training between the 1st and 2nd reinstatement test, and between the 2nd and 3rd reinstatement test). Using the 3×3 within subject design, each given animal goes through all three treatments (saline, MTEP and Compound 1) across the three rounds of test.
(§1) A one-way mixed-effects model (REML) of ANOVA followed by Dunnett's post hoc tests were used to analyze efficacy of Compound 1 and MTEP on cocaine self-administration in stages I (The repeated measure ANOVA was not totally applicable due to a few outlier data points, which are removed), and one-way mixed-effects model (REML) of ANOVA followed by Tukey's post hoc tests were used in Stage II. An effect was considered significant if P<0.05. Data were represented as the mean and standard error to the mean (s.e.m).
Statistical outliers which exceeded mean +/− (2× standard deviation) of the group were removed from the analysis. Also, for reinstatement, the extinction time was shortened (from 9 days plus extension as option to 6 days). In the present study, 3 rounds of reinstatement tests were performed, and we wished to maintain the reinstatement power, thus we cut extinction duration. Accordingly, we loosened the extinction criterion from 6 or less infusions to 9 or less infusions during the last extinction session. With this criterion, 17 out of 21 rats were eligible in drug test in Stage II.

[4] = test system: oxycodone reinstatement in rats; assay: Yohimbine-induced reinstatement of oxycodone self-administration; assay type: in vivo, Sprague-Dawley rats; details: yohimbine 2 mg/kg; P<0.001
Method: Evaluation of Compound 1 on Oxycodone Reinstatement. After completion of testing rats were re-trained with oxycodone for one week to ensure stable baseline. Rats then underwent a 6-day extinction where only saline infusion occurred when active lever was pressed. Meanwhile, the rats were divided into 3 groups: All rats received one injection of alpha-2 adrenergic antagonist yohimbine (2 mg/kg) with 0 min pretreatment (rats were placed into the training box immediately). Thirty minutes before yohimbine treatment, one group of rats received saline, another group received MTEP 3 mg/kg injection, and the 3rd group received Compound 1 (3 mg/kg). Yohimbine-induced reinstatement was re-tested two more times in the same rats 3 days and 6 days after the first test, under continuous extinction procedure.
as §1, with “Statistical Analysis. Prism 9.40 software package Version 9 was used for statistical analysis and graphing. The number of active lever responses were recorded during each session and compared between treatment groups. A one-way” for “A one-way”, “MTEP on oxycodone self-administration in” for “MTEP on cocaine self-administration in”, “mean (s.e.m). Statistical outliers which exceeded mean +/− (2× standard deviation) of the group were removed from the analysis.” for “mean (s.e.m).”

[5] = yohimbine 2 mg/kg after saline pretreatment

Row | SMILES | alcohol intake at the 24-hr measurement interval, comparison of equivalent doses [1] | alcohol drinking at 1-hr of access vs vehicle control, positive control comparison ([1]; N=11) | cue-induced reinstatement in rats [2] | cocaine reinstatement, Mean Diff., Last Day of Cocaine Retraining vs. Saline - Yohimbine 2 mg/kg [3, 5] | cocaine reinstatement, Mean Diff., Last Day of Extinction vs. Saline - Yohimbine 2 mg/kg [3, 5] | reinstatement of cocaine self-administration after extinction ([3]; yohimbine 2 mg/kg, P<0.001) | reinstatement of oxycodone self-administration relative to extinguished level [4]
1 | Cc1cccc(C#Cc2ccccc2)n1 [MPEP, reference compound] | only Compound 1 (3 mg/kg) maintained efficacy | significantly decreased alcohol drinking | blocks cue-induced reinstatement |  |  |  | 
2 | COC(=O)[C@@H]1[C@H]2C[C@H]3c4[nH]c5ccccc5c4CCN3C[C@@H]2CC[C@@H]1O [Yohimbine, yohimbine] |  |  |  | 6.294 | −14.53 | induced significant reinstatement | induced significant reinstatement
